Consider 40 compounds from ChEMBL document CHEMBL1201862, “PubChem BioAssay data set” (2004).

Active and inactive are the calls of the source. Cut-off read from the data, not from the text of the source, for most assays here: actives have a measured EC50 and inactives only a lower limit.

Test [1] addresses T1, Cytochrome P450 1A2 (Homo sapiens, UniProt P05177).
T1 sequence (P05177 whole entry): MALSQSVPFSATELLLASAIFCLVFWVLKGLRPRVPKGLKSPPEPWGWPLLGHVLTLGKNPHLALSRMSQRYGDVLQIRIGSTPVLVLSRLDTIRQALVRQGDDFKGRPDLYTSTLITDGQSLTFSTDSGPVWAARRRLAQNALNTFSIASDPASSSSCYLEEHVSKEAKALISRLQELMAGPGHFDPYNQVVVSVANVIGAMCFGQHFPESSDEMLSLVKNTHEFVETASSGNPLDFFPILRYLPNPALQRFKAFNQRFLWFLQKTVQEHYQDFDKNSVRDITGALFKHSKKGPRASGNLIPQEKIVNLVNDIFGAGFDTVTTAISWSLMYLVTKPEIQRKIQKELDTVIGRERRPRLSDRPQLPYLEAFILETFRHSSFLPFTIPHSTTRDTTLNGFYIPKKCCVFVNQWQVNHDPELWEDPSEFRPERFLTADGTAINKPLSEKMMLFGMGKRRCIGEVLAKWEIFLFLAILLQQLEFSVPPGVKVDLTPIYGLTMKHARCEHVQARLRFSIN

The test system of test [2] is Streptococcus sp. 'group A'. In words: Streptococcus pyogenes SK(-)GAS viability under kanamycin – luminescence, BacTiterGlo, confirmation, counter-screen for streptokinase expression inhibitor project, dose response (AID 1900). The format is functional, organism-based.
Test [3] concerns the target T2, Streptokinase A (Streptococcus pyogenes serotype M1, UniProt P10520).
T2 sequence (P10520 whole entry): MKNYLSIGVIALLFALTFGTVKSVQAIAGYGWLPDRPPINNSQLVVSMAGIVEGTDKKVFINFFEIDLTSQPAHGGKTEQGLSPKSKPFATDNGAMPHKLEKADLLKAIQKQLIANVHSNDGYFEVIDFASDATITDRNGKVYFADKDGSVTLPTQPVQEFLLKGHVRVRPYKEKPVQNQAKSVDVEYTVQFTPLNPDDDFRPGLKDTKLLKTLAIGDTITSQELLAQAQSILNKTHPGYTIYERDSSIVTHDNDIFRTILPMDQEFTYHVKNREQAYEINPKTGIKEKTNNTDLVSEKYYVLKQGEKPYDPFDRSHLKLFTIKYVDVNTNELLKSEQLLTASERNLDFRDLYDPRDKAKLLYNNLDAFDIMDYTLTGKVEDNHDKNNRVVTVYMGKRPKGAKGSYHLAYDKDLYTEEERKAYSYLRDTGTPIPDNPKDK
In words: viability-normalized secreted streptokinase activity reduction – plasminogen activation absorbance, OD405, dose response (AID 1914).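 Note: secreted streptokinase activity via plasminogen activation per viability signal from cell pellet.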 The format is functional, Streptococcus pyogenes M1 GAS.

For test [4], the system named is Streptococcus. In words: GAS UMAA2166 growth inhibition – luminescence, BacTiterGlo, counter-screen for streptokinase expression inhibitor project, dose response (AID 1915).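 Note: potency for reduction of bacterial viability or growth.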 The format is functional, organism-based.
Test [5] in a line: Trypanosoma cruzi growth suppression in host cells – NIH3T3 host cells, beta-gal luminescence, confirmation (AID 2044).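 Note: intracellular parasites grown in NIH/3T3 mouse fibroblasts as host cells; luminescent beta-galactosidase reporter signal from transgenic T. cruzi replicating inside host cells; inhibitors lower the luminescence signal.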 The format is functional, cell-based.
Test [6] in a line: NIH3T3 cell viability loss – ATP luminescence, mouse fibroblasts, counter-screen, dose response (AID 2010).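 Note: cells exposed to compound for about 90 hours before reading.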 The format is functional, cell-based.
For test [7], the target named is T3, Corticotropin-releasing factor receptor 2/Corticotropin-releasing factor-binding protein (Homo sapiens, UniProt P24387+Q13324).
T3 sequence (Q13324 whole entry): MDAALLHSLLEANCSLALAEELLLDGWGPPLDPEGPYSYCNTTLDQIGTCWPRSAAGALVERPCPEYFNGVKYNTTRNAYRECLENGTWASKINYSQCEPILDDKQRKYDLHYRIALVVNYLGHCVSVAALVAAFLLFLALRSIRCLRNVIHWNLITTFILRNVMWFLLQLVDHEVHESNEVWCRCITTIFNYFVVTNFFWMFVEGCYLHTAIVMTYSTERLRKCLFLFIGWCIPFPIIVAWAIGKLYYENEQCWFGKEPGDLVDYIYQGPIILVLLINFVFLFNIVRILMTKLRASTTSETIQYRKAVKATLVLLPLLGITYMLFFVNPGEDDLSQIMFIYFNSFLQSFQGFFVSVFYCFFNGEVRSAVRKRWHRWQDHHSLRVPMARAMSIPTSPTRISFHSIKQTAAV
T3 sequence (P24387 whole entry): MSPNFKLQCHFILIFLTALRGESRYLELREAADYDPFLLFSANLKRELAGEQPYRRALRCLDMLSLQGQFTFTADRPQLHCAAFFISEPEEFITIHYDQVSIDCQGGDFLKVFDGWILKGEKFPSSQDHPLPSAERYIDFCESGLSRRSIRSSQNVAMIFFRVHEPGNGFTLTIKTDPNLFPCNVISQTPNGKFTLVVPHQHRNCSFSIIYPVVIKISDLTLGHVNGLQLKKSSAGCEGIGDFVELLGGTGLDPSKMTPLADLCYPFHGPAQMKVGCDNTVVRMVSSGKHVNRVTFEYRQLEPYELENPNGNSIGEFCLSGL
In words: activators of CRF receptor 2 with binding protein – uHTS hits, confirmation (AID 602473). The format is functional. The settings on record: read-out: EC50_Mean.
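Throughout, for AC50: PubChem cytochrome P450 panel assay, CYP1A2 panel member.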

Consider `CN1CCN(c2ncc3nc(-c4cn(C)c5ccccc45)c(=O)n(-c4ccccc4)c3n2)CC1`, for which the AC50 in test [1] was 15.8 µM (inconclusive).
As to `C=CCn1c(Oc2ccc(C(=O)OC)cc2)nc2c1c(=O)n(C)c(=O)n2C`, the figures for the EC50 in test [2], in test [3] and in test [4] were 12.4 µM (active), > 150 µM (not active) and > 150 µM (not active), respectively.
With `Cc1ccc(NC(S)=NC2CCSc3ccccc32)cc1C` (centres undefined), the EC50 was 20.6 µM (active) in test [2] and > 150 µM (not active) in test [4].
As for `COc1ccc(CN(C(=O)c2ccc(-c3ccccc3)[nH]2)C(C(=O)NC(C)(C)C)c2ccncc2)cc1` (centres undefined), the values for the EC50 in test [5] and in test [6] were 0.706 µM (active) and > 60 µM (not active), respectively.
For the compound `O=[N+]([O-])c1cc(-c2n[nH]c(-c3ccccc3)n2)cc([N+](=O)[O-])c1`, the figures for the EC50 in test [5] and in test [6] were 0.475 µM (active) and > 60 µM (not active), respectively.
For the compound `COc1ccc(NS(=O)(=O)c2ccc(C(=O)N3CCC(C)CC3)cc2)cc1`, in test [7], the EC50 is 9.87 µM (active).
Regarding `Cn1c(Oc2ccccc2NCc2cc(Br)ccc2O)cc(=O)n(C)c1=O`, the values for the EC50 in test [2], in test [3] and in test [4] were 6.42 µM (active), > 150 µM (not active) and 16.1 µM (active), respectively.
Regarding `COc1ccc(NC(=O)CSc2ccc3nnc(-c4ccccn4)n3n2)c(OC)c1`, the EC50 in test [2], in test [3] and in test [4] was > 150 µM (not active) in each case.
For `COc1ccccc1CNc1ncnc2ccc(-c3ccccc3CN(C)C)cc12`, the AC50 in test [1] is 15.8 µM (inconclusive).
With `Clc1ccc(C2C3=C(Nc4ncnn42)c2ccccc2CC3)cc1` (centres undefined), the results for the EC50 in test [2], in test [3] and in test [4] were 7.5 µM (active), > 150 µM (not active) and 43.2 µM (active), respectively.
Regarding `Cc1cc(C)nc(N=C(NCCc2c[nH]c3ccccc23)NC(=O)Nc2ccc(Cl)c(Cl)c2)n1`, the EC50 in test [5] is 1.62 µM (active); in test [6] it was > 60 µM (not active).
`COc1ccccc1C(=O)NC(=S)Nc1ccc(N2CCCC2)cc1`: the EC50 in test [5] was 1.97 µM (active); in test [6], > 60 µM (not active).
For `Cc1ccc2cc(/C=N/NC(=O)[C@H]3C[C@@H]3c3ccccc3)c(Cl)nc2c1`, the EC50 is 2.26 µM (active) in test [5] and > 60 µM (not active) in test [6].
Taken in the same sequence, the figures for `COc1cc(CNCCc2ccccc2F)ccc1OCC(=O)N1CCCCC1` were 0.393 µM (active) and > 30 µM (not active).
On to `O=c1[nH]c(=O)c2cc([N+](=O)[O-])cc([N+](=O)[O-])c2[nH]1`, for which the EC50 in test [5] was 1.04 µM (active); in test [6], > 30 µM (not active).
The corresponding values for `CCc1ccc(CN(Cc2cccnc2)C(=O)/C=C/c2ccc(OC)cc2)cc1` are 0.375 µM (active) and > 30 µM (not active).
Consider `CCC(N=C(S)NC1CCCCC1)c1ccc(C(C)C)cc1` (centres undefined), for which the EC50 was 10.7 µM (active) in test [2] and 82 µM (active) in test [4].
With `CCCCn1c(=N)c(S(=O)(=O)c2ccc(Br)cc2)cc2c(=O)n3cccc(C)c3nc21`, the EC50 in test [7] is > 53 µM (inactive).
Regarding `COc1ccc(/C=C/c2ccncc2)cc1`, the figures for the EC50 in test [5] and in test [6] were 0.529 µM (active) and > 60 µM (not active), respectively.
For `CCOC(=O)N1CCN(CC(O)c2ccc3cc[nH]c3c2)CC1` (centres undefined), in test [7], the EC50 was > 53 µM (inactive).
Regarding `COC(=O)C1=CN(Cc2ccc(OC)c(OC)c2)C=C(C(=O)OC)C1c1cccs1`, the EC50 in test [5] is 0.707 µM (active).
For `Cc1ccc(NC(=S)NC2CCSc3ccccc32)cc1C` (centres undefined), in test [3], the EC50 is 24.3 µM (active).
Turning to `CC1CC(C)CN(C2CCCCC2NS(=O)(=O)c2ccc(Cl)cc2)C1` (centres undefined), the EC50 in test [7] was 6.53 µM (active).
`CCOc1cccc2sc(N(CCCN(C)C)C(=O)c3ccc(S(=O)(=O)N(C)c4ccccc4)cc3)nc12`: the EC50 is 1.52 µM (active) in test [5] and > 60 µM (not active) in test [6].
As for `CCOc1ccc(NS(=O)(=O)c2cc(NC(=O)c3ccc(C)cc3)ccc2Cl)cc1`, the EC50 in test [2] was 12.5 µM (active); in test [4], 6.62 µM (active).
On to `CN1CCN(c2ncnc3sc(-c4ccccc4)cc23)CC1`, for which the results for the EC50 in test [5] and in test [6] were 0.314 µM (active) and > 60 µM (not active), respectively.
For `COC(=O)[C@@]12CCCN1[C@H](c1ccc(-c3cccc(Cl)c3)c(OC)c1)[C@H]1C(=O)N(C)C(=O)[C@H]12`, the EC50 in test [2] is 105 µM (active); in test [3], > 150 µM (not active); in test [4] it was > 150 µM (not active).
Take `COc1ccc(C(=O)Nc2c3c(nn2-c2ccc([N+](=O)[O-])cc2)CS(=O)(=O)C3)cc1`: the EC50 in test [2] is 16.1 µM (active); in test [3], > 150 µM (not active); in test [4], > 150 µM (not active).
Turning to `CC1CCCC(C)N1S(=O)(=O)c1ccc(S(=O)(=O)NCCc2ccncc2)cc1` (centres undefined), the EC50 was 2.83 µM (active) in test [5] and > 60 µM (not active) in test [6].
On to `Cc1cccc(NC(=O)C(=O)NNC(=O)c2ccc(C(C)(C)C)cc2)c1`, for which the values for the EC50 in test [2], in test [3] and in test [4] were 9.34 µM (active), > 150 µM (not active) and 25.4 µM (active), respectively.
Take `CCCOc1ccc(CNCCCOCC)cc1OC`: the values for the EC50 in test [5] and in test [6] were 0.344 µM (active) and > 60 µM (inconclusive), respectively.
For the compound `N#Cc1c(NC(=S)NC(=O)c2ccccc2)sc2c1CCN(CCc1ccccc1)C2`, the EC50 was 0.717 µM (active) in test [5] and > 60 µM (not active) in test [6].
As for `Cc1ccc(C(=O)N2CCOCC2)cc1S(=O)(=O)N1CCOCC1`, the EC50 in test [2], in test [3] and in test [4] was > 150 µM (not active) throughout.
As for `CCOc1ccc(C)cc1S(=O)(=O)NC1CCCCCC1`, the EC50 in test [2], in test [3] and in test [4] was > 150 µM (not active) throughout.
As for `COc1ccccc1C(c1nnnn1Cc1ccco1)N1CCN(c2cccc(C)c2C)CC1` (centres undefined), the values for the EC50 in test [5] and in test [6] were 1.84 µM (active) and > 60 µM (not active), respectively.
Consider `CN1C(=O)C(=Cc2ccc(N3CCOCC3)o2)C(=O)N(C)C1=S`, for which, in test [7], the EC50 is 7.57 µM (active).
For `N#Cc1ccccc1Cn1cc(/C=N/Nc2ccc([N+](=O)[O-])cn2)c2ccccc21`, the EC50 in test [5] is 1.94 µM (active); in test [6], > 60 µM (inconclusive).
With `CC1(C)CC(=O)c2c(n(S(=O)(=O)c3ccccc3)c3ccc(NS(=O)(=O)c4ccccc4)cc23)C1`, the EC50 in test [5] is 1.03 µM (active); in test [6], 10.6 µM (active).
Regarding `Cc1ccccc1-n1nc(C(=O)c2cccs2)cc(-c2nc3ccccc3[nH]2)c1=N`, the EC50 is 2.99 µM (active) in test [2] and 3.73 µM (active) in test [4].
Take `Cc1c(-n2cc(C(=O)c3cc(F)ccc3O)cc(C#N)c2=O)c(=O)n(-c2ccccc2)n1C`: the EC50 in test [7] is > 53 µM (inactive).
